Measurements reported in ChEMBL document CHEMBL3988442, “University of Dundee, Small-Polar-MMV Screening Library” (2021).

Biological target: Tryptophan--tRNA ligase (Mycobacterium tuberculosis (strain ATCC 25618 / H37Rv), UniProt P9WFT3)
Assay: Biochemical assay for Mt-TrpRS
Format: functional

Tryptophan--tRNA ligase, sequence (P9WFT3 whole entry): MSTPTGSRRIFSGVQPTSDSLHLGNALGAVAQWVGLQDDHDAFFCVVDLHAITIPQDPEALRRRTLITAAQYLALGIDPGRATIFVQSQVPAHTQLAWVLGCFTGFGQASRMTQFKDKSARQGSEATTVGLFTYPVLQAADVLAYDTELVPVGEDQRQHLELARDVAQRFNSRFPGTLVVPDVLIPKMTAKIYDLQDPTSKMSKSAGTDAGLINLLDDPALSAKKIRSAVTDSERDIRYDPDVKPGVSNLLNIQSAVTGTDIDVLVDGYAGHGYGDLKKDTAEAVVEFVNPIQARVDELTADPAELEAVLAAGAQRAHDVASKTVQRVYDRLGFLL

| Structure (SMILES) | IC50 [µM] |
| --- | --- |
| Cn1c(=O)c2cc(C(=O)NCCc3ccccc3)ccc2n(C)c1=O | > 195 |
| CNc1nccnc1C1CCN(C(C)C)CC1 | > 195 |
| CN(C)c1cncc(C2CCN(CC(N)=O)CC2)n1 | > 195 |
| O=C(Cn1ccnc1)N1C[C@@H]2CC[C@H](Oc3ccccc3F)[C@@H]2C1 | > 195 |
| CN(Cc1ccc(F)cc1)CC1(O)CCN(C(=O)c2ccsc2)C1 (configuration not stated) | > 195 |
| NC(=O)C1(CCCc2ccncc2)CCCN1 (configuration not stated) | > 195 |
| O=C(O)C1(Cc2cccc(-c3ccc(F)cc3)c2)CCOCC1 | > 195 |
| O=C(c1cncs1)N1CCC(c2cnccn2)CC1 | > 195 |
| CC(=O)NC(=O)C1(CCCc2ccncc2)CCN1 (configuration not stated) | > 195 |
| CC(=O)N1CCN(CC(N)=O)CC(COc2ccccc2)C1 (configuration not stated) | > 195 |
| CN(C)CCn1c([C@H]2CCCO2)cc2cccnc21 | > 195 |
| O=C(NCCN1CCOCC1)Nc1cnc2cc(Cl)ccc2c1O | > 195 |
| COCCC(=O)N1CCCC(c2nc(O)cc(-c3ccncc3)n2)C1 (configuration not stated) | > 195 |
| O=C(C1CCCC1)N1CCCC(c2nc(O)cc(-c3ccncc3)n2)C1 (configuration not stated) | > 195 |
| CNC(=O)Nc1cnc2cc(Cl)ccc2c1O | > 195 |
| O=C(O)C1(Cc2cc(-c3ccc(F)cc3)no2)CCOCC1 | > 195 |
| O=C(O)C1(Cc2cc(-c3ccccc3F)no2)CCOCC1 | > 195 |
| CN1CCC(Cc2cncc(-c3ccccc3C(=O)O)n2)C1 (configuration not stated) | > 195 |
| COCCN1C(=O)CO[C@H]2CN(Cc3ccccc3Cl)C[C@@H]21 | > 195 |
| CCn1cc(S(=O)(=O)NC(=O)CCc2c[nH]c3ccccc23)cn1 | > 195 |
| CC1CN(Cc2ccccc2)CCCN1CCNS(C)(=O)=O (configuration not stated) | > 195 |
| Cc1cnn(CCCNC2Cc3ccccc3C2)c1 | > 195 |

| Structure (SMILES) | IC50 [µM] |
| --- | --- |
| COC(=O)CCCNC(=O)Nc1ccccc1OC | > 195 |
| Cc1cc(CS(=O)(=O)CC(=O)N2c3ccccc3CC2C)no1 (configuration not stated) | > 195 |
| CN(C)C(CNCc1nc(-c2ccsc2)no1)c1cccs1 (configuration not stated) | > 195 |
| CN(C)C(CNCc1nc(-c2ccsc2)no1)c1ccsc1 (configuration not stated) | > 195 |
| COc1ccccc1NC(=O)NCCCC(=O)Nc1cn[nH]c1 | > 195 |
| COc1cc(NC2CCCNC2)cc(OC)c1 (configuration not stated) | > 195 |
| CS(=O)(=O)c1nccn1Cc1ccc(F)cc1Cl | > 195 |
| CC1CCN(CC(O)CNc2ccccn2)CC1 (configuration not stated) | > 195 |
| OC(CNc1ccc(Cl)cn1)CN1CCOCC1 (configuration not stated) | > 195 |
| COc1ccccc1NC(=O)NCc1cn[nH]c1 | > 195 |
| CS(=O)(=O)c1nccn1CCOc1ccccc1F | > 195 |
| COc1cccc(C2=CCN(CCN3CCOC3=O)CC2)c1 | > 195 |
| CC1CN(Cc2ccccc2)CCCN1CCS(C)(=O)=O (configuration not stated) | > 195 |
| COCCN1CC=C(c2cccc(OC)c2)CC1 | > 195 |
| CSCC(C)(O)CNc1ncccc1I (configuration not stated) | > 195 |
| COc1ccc2c(c1)CC(NCCCn1cc(C)cn1)CC2 (configuration not stated) | > 195 |
| Cc1cc(C)c(CNC(=O)NCc2nnc3n2CCC3)c(=O)[nH]1 | > 195 |
| COc1c(C(=O)N2CCC(CSc3ccccc3)C2)c(C)nn1C (configuration not stated) | > 195 |
| C[S+]([O-])CCNC(=O)Nc1cc(F)ccc1-n1cccn1 (configuration not stated) | > 195 |
| Cc1nn(C)cc1C(=O)N1CCC(CSc2ccccc2)C1 (configuration not stated) | > 195 |
| OCc1nnc2n1CCN(c1cnccn1)C2 | > 195 |
| O=C(Cc1cccs1)N1Cc2nc(CN3CCCC3)oc2C1 | > 195 |

| Structure (SMILES) | IC50 [µM] |
| --- | --- |
| NC(=O)N1CCc2ncc(CNC(=O)CC3CC3)n2CC1 | > 195 |
| COCCN1CCc2ncnc(NC3CC3)c2CC1 | > 195 |
| Cc1nc(Cn2c3c(ccc2=O)CC(NC(N)=O)CC3)cs1 (configuration not stated) | > 195 |
| CNc1cc(-c2ccncc2)ncn1 | > 195 |
| Cc1ccnc(N2CCC(C(N)=O)CC2)n1 | > 195 |
| Cc1ccc2c(c1)[C@@H](CC(=O)N(C)C)CCO2 | > 195 |
| COCCN1CC(=O)c2sc(NC(C)C)nc2C1 | > 195 |
| CN1CC(=O)c2sc(NCCc3ccccc3)nc2C1 | > 195 |
| O=c1[nH]c(-c2ccncc2)ncc1-c1ccnc(NC2CC2)n1 | > 195 |
| O=C1CN(CC2CC2)Cc2nc(NCc3ccccc3)sc21 | > 195 |
| O=C1CN(CC2CC2)Cc2nc(NCCc3ccccn3)sc21 | > 195 |
| CNc1nc2c(s1)C(=O)CN(C(=O)NCCc1ccccc1)C2 | > 195 |
| COCC(=O)N1CC(=O)c2sc(Nc3ccc(F)cc3F)nc2C1 | > 195 |
| OCCN1CCN(Cc2cnc3c(-c4ccccc4)cnn3c2)CC1 | > 195 |
| O=C(CN1CCOC1=O)N1CC[C@@H](c2ccc3ccccc3c2)[C@H](O)C1 | > 195 |
| CNC(=O)c1nc(CN2CCOC(C(F)(F)F)C2)no1 (configuration not stated) | > 195 |
| CN(C)C(=O)N1CC[C@@H](c2ccc3ccccc3c2)[C@H](O)C1 | > 195 |
| Cc1nn(CC(=O)NCc2cc3n(n2)CCCN(CC(C)C)C3)cc1Cl | > 195 |
| Nc1cnc(-c2ccc(F)cc2Cl)cn1 | > 195 |
| O=C(NCC1=CCCCC1)C(c1cccnc1)N1CCCC1 (configuration not stated) | > 195 |
| COc1cc(N(C)CCC(O)c2ccccc2)ncn1 (configuration not stated) | > 195 |
| CC(C)N1CCCC2(CCN(Cc3noc(C4CCCC4)n3)C2)C1=O (configuration not stated) | > 195 |

| Structure (SMILES) | IC50 [µM] |
| --- | --- |
| CN1C(=O)CC(C(=O)O)C12CCN(Cc1ccc(Cl)c(F)c1)CC2 (configuration not stated) | > 195 |
| COc1ccc([C@@H]2CN(C(=O)CCn3cccn3)C[C@H]2NC(C)=O)cc1 | > 195 |
| Cc1ccc(F)cc1-c1ccc(N)nc1 | > 195 |
| CSc1ccccc1C(=O)NCc1cc2n(n1)CCCN(CC(C)C)C2 | > 195 |
| NC(=O)C1CCN(C(C(=O)O)c2ccc(Cl)c(C(F)(F)F)c2)CC1 (configuration not stated) | > 195 |
| CSc1ncc(C(=O)NCc2cc3n(n2)CCCN(CC(C)C)C3)cn1 | > 195 |
| Cc1nc(N(C)CCN(C)C)c2cnn(C)c2n1 | > 195 |
| Nc1nc2c(c(NC3CCCC3)n1)CCN(C(=O)C1CCOC1)CC2 (configuration not stated) | > 195 |
| Cc1cc(C)n(NC(=O)c2ccccc2F)c(=O)c1 | > 195 |
| CCC(NC(=O)c1nn(C)cc1C(=O)O)c1ccc(C)cc1C (configuration not stated) | > 195 |
| CCSc1ncc(Cl)c(C(=O)NC(CCSC)C(=O)O)n1 (configuration not stated) | > 195 |
| CSCCC(NC(=O)c1nc(SC)ncc1Cl)C(=O)O (configuration not stated) | > 195 |
| CSc1ncc(Cl)c(C(=O)NC(Cc2ccccc2)C(=O)O)n1 (configuration not stated) | > 195 |
| COc1ccc(-c2cc(N)on2)cc1 | > 195 |
| CCn1cc(N)c(-c2nnc3n2CCC3)n1 | > 195 |
| CCn1cc(N)c(-c2nnc3n2CCCC3)n1 | > 195 |
| Cn1ncc(NC(=O)c2noc3c2CCCC3)c1C(N)=O | > 195 |
| CCN(CC)C1COc2ccc(Br)cc2C1=O (configuration not stated) | > 195 |
| Cc1c(Br)cc2c(c1C)OCC(N(C)C)C2=O (configuration not stated) | > 195 |
| O=C1NC(=O)c2c3c(nc(O)c21)CCCC3 | > 195 |
| O=C1CCC(=O)N1c1nn(Cc2c(F)cccc2Cl)cc1Cl | > 195 |
| O=C1CCC(=O)N1c1nn(Cc2ccc(F)cc2)cc1Cl | > 195 |

| Structure (SMILES) | IC50 [µM] |
| --- | --- |
| CNCc1cc(F)ccc1Oc1ccc(F)cc1 | > 195 |
| Cc1cn(Cc2ccc(F)c(F)c2)nc1N | > 195 |
| CC(C)c1cc(CN2CCC(N)CC2)on1 | > 195 |
| Cc1cn(Cc2ccccc2)nc1N | > 195 |
| Cc1ccc(Cn2cc(C)c(N)n2)cc1 | > 195 |
| Cc1cccc(Cn2cc(C)c(N)n2)c1 | > 195 |
| O=C1CCC(=O)N1c1nn(Cc2ccccc2)cc1Cl | > 195 |
| O=C1CCC(=O)N1c1nn(Cc2cccc(F)c2)cc1Cl | > 195 |
| CC(=O)c1ccc(OCC(C)O)cc1O (configuration not stated) | > 195 |
| CCOC(=O)COc1ccc(C(C)=O)c(O)c1 | > 195 |
| Cn1c(=O)c2cc(C(=O)NCCOCC(F)(F)F)ccc2n(C)c1=O | > 195 |
| O=C(O)CCc1nc2nccc(-c3ccc(F)cc3)n2n1 | > 195 |
| O=C(O)Cc1nc2nccc(-c3ccc(F)cc3)n2n1 | > 195 |
| Cn1cc(-c2cc(C(F)(F)F)n(CCCN)n2)cn1 | > 195 |
| COc1cc(CNc2cnn(CC(F)F)c2)ccc1O | > 195 |
| CC(CC#N)n1ccc(C(F)(F)F)n1 (configuration not stated) | > 195 |
| CCC(CC#N)n1ccc(C(F)(F)F)n1 (configuration not stated) | > 195 |
| COc1cccc(CNc2cnn(CC(F)F)c2)c1 | > 195 |
| COc1ccc(CNc2cnn(CC(F)F)c2)cc1 | > 195 |
| COC(=O)c1ccc(CNCc2ccn(C)n2)cc1 | > 195 |
| Cc1cc(C(F)(F)F)nn1CCCNC(=O)C1CCCO1 (configuration not stated) | > 195 |
| Cc1nc(C)c(C(=O)NCCNC(=O)Cc2ccc(F)cc2)s1 | > 195 |

| Structure (SMILES) | IC50 [µM] |
| --- | --- |
| Cc1ccc(C(=O)NS(=O)(=O)c2cc(Br)ccc2C)c(=O)[nH]1 | > 195 |
| Cc1ccc(C(=O)NS(=O)(=O)c2ccccc2F)c(=O)[nH]1 | > 195 |
| Cc1ccc(C(=O)NS(=O)(=O)c2ccccc2Cl)c(=O)[nH]1 | > 195 |
| CC1CCN(CCCNC(=O)NC(C)c2nncn2C)CC1 (configuration not stated) | > 195 |
| COCCN1CCN(CCS(C)(=O)=O)CC1C (configuration not stated) | > 195 |
| N#Cc1ccc(CN2CCCCC2Cn2cccn2)cc1 (configuration not stated) | > 195 |
| Cc1nc(C2CCCN2CC(=O)N(C)Cc2ccsc2)no1 (configuration not stated) | > 195 |
| Cc1nnc2n1CCN(Cc1csc(-c3ncccn3)n1)C2 | > 195 |
| COCCC(=O)NCCn1nc(C2CCNC2)c2cccnc21 (configuration not stated) | > 195 |
| CNC(=O)C1(CCCc2ccncc2)CCN1 (configuration not stated) | > 195 |
| c1cc(CN2C[C@H](OCC3CCOCC3)[C@H]3COC[C@H]32)co1 | > 195 |
| N#Cc1cccc(CN2CC[C@@H]3CN(c4ncccn4)CCO[C@@H]3C2)c1 | > 195 |
| CN(C)C(=O)CN1CCOCC2(C1)CN(c1ncccn1)CCO2 (configuration not stated) | > 195 |
| CN(C)[C@@H]1CN(C(=O)Cc2ccc(F)cc2)[C@@H]2CCCO[C@H]12 | > 195 |
| c1csc(CN2C[C@H](OCC3CC3)[C@H]3COC[C@H]32)n1 | > 195 |
| O=C1CC[C@H]2[C@H](CCN2c2ncccn2)N1c1ccccc1 | > 195 |
| CCc1ncnc2c1CCN(CCOC)CC2 | > 195 |
| CN(C)C(=O)CO[C@H]1CN(Cc2ccsc2)[C@@H]2COC[C@H]12 | > 195 |
| CCc1ccc(CN2C[C@H](OC)[C@H]3COC[C@H]32)o1 | > 195 |
| Cc1ccc(CN2CCO[C@H]3[C@H](OCc4cccnc4)CC[C@@H]32)o1 | > 195 |
| Fc1cccc(CN2C[C@@H]3CN(c4ncccn4)C[C@@H]3C2)c1 | > 195 |
| c1ccc(OCC2C[C@@H]3[C@@H](C2)OCCN3Cc2ccoc2)nc1 (some centres not stated) | > 195 |
